Assays:
[1] = test system: IL-2 production in human peripheral blood mononuclear cell (PBMC); experiment: Human PBMC CD3/CD28-induced IL-2 production inhibition test; assay type: cell-based; conditions: 48 h, CD3/CD28 stimulation, incubation for 2 days, ELISA
Description: Human Peripheral Blood Mononuclear Cell (PBMC) CD3/CD28-Induced IL-2 Production Inhibition Test
PBMC was separated and collected by using Ficoll-Paque (17-1440-02 manufactured by GE Healthcare Japan Corp.) from blood collected from healthy human adult in the presence of heparin. RPMI1640 medium (manufactured by GIBCO/Thermo Fisher Scientific, Inc., REF. 11875) containing 10% FBS (manufactured by GIBCO/Thermo Fisher Scientific, Inc. REF. 10082) and containing a test compound dissolved in DMSO and 2 μg/mL anti-hCD28 (manufactured by R&D Systems, Inc., Cat. No. MAB342) was added at 100 μL/well to T cell Activation Plate Anti-Human CD3 96-well plate (manufactured by Corning Inc., REF. 354725), and subsequently, a PBMC suspension adjusted such that the number of cells was 2×10^6 cells/mL was added at 100 μL/well (final DMSO concentration: 0.1%). A RPMI1640 medium containing 10% FBS and containing 0.1% DMSO and 2 μg/mL anti-hCD28 was similarly added to wells not supplemented with the test compound. After incubation for 2 days in a carbon dioxide incubator, the culture supernatant was collected. The collected culture supernatant was stored at −20° C. until IL-2 content measurement.
In the measurement of IL-2 content in the culture supernatant, a sandwich ELISA kit Quantikine Human IL-2 (manufactured by R&D Systems, Inc., Cat. No. S2050) was used. The IL-2 content of each sample was calculated from the calibration curve of Standard IL-2 included in the kit. When the amount of IL-2 produced by CD3/CD28 stimulation in the case of the addition of only DMSO was defined as 100%, the rate of inhibition of IL-2 production at each concentration of the test compound was calculated. A test compound concentration inhibiting 50% of IL-2 production was calculated as an IC50 value (nM) from the concentration of the added test compound and the rate of inhibition of IL-2 production by the test compound by using EXSUS (version 8.0.0 or version 8.0.1, manufactured by CAC Exicare Corp.).

[2] = test system: IL-17 production in human PBMC-derived T cells; experiment: Human PBMC various-stimulant cocktail-induced IL-17 production inhibition test; assay type: cell-based; conditions: 120 h; human T-cell suspension from PBMC, cocktail of various stimulants, incubation for 5 days, ELISA
Description: Human PBMC Various-Stimulant Cocktail-Induced IL-17 Production Inhibition Test
PBMC was separated and collected by using Ficoll-Paque (17-1440-02 manufactured by GE Healthcare Japan Corp.) from blood collected from healthy human adult in the presence of heparin. The collected PBMC was further cultured in a flask for a certain time, and then, non-adherent cells in the supernatant were collected and used as a T-cell suspension. RPMI1640 medium (manufactured by GIBCO/Thermo Fisher Scientific, Inc., REF. 11875), which is containing 10% FBS (manufactured by GIBCO/Thermo Fisher Scientific, Inc., REF. 10082), 1% penicillin/streptomycin/amphotericin B (manufactured by GIBCO/Thermo Fisher Scientific, Inc., REF. 15240-096), 1% nonessential amino acids (manufactured by GIBCO/Thermo Fisher Scientific, Inc., REF. 11140-050), and 1% pyruvic acid (manufactured by GIBCO/Thermo Fisher Scientific, Inc., REF. 11140) and containing a test compound dissolved in DMSO, 2 μg/mL (final concentration) CD28 antibody (manufactured by BioLegend, Inc., Cat. No. 302914), 10 μg/mL (final concentration) human IFN-γ antibody (manufactured by BD Biosciences, Cat. No. 554698), 10 μg/mL (final concentration) human IL-4 antibody (manufactured by BD Biosciences, Cat. No. 554481), 20 ng/mL (final concentration) human IL-6 (manufactured by BioLegend, Inc., Cat. No. 570802), 10 ng/mL (final concentration) human IL-23 (manufactured by BioLegend, Inc., Cat. No. 574102), 10 ng/mL (final concentration) human IL-1(3 (manufactured by PeproTech Inc., Cat. No. 200-01B), and 10 ng/mL (final concentration) human TGF-13 (manufactured by BioLegend, Inc., Cat. No. 580702), was added at 100 μL/well to T cell Activation Plate Anti-Human CD3 96-well plate (manufactured by Corning Inc., REF. 354725). Subsequently, 100 μL of a T-cell suspension adjusted to 2×10^5 cells/mL was added to each well (final DMSO concentration: 0.1%). Only DMSO was added to wells in the absence of the test compound. After incubation for 5 days in a carbon dioxide incubator, the culture supernatant was collected and stored at −20° C. until IL-17 content measurement.
In the IL-17 content measurement in the culture supernatant, a sandwich ELISA kit (Quantikine Human IL-17, manufactured by R&D Systems, Inc.) was used. The IL-17 content of each sample was calculated from the calibration curve of Standard IL-17 included in the kit. When the amount of IL-17 produced by the cocktail of various stimulants in the case of the addition of only DMSO was defined as 100%, the rate of inhibition of IL-17 production at each concentration of the test compound was calculated. The concentration of the test compound necessary for inhibiting 50% of IL-17 production (IC50 value) was calculated from the concentration of the added test compound and the rate of inhibition of IL-17 production by the test compound by using EXSUS (version 8.0.0 or version 8.0.1, manufactured by CAC Exicare Corp.).

In the case of `CCOC[C@@H](NC(=O)N1Cc2c(NC(=O)C3([Si](C)(C)C)CCC3)n[nH]c2C1(C)C)c1ccccc1` [IV-139, (S)—N-(2-Ethoxy-1-phenylethyl)-6,6-dimethyl-3-[1-(trimethylsilyl)cyclobutanecarboxamido]-4,6-dihydropyrrolo[3,4-c]pyrazole-5(1H)-carboxamide], the IC50 [1] is reported as no more than 50 nM.
`CC(C)(CO)C(NC(=O)N1Cc2c(NC(=O)C3([Si](C)(C)C)CCC3)n[nH]c2C1(C)C)c1ccc(F)cc1` (centres unmarked) [IV-946, N-[1-(4-Fluorophenyl)-3-hydroxy-2,2-dimethylpropyl]-6,6-dimethyl-3-[1-(trimethylsilyl)cyclobutanecarboxamido]-4,6-dihydropyrrolo[3,4-c]pyrazole-5(1H)-carboxamide] was tested, and the IC50 [2] was no more than 50 nM.
`CC1(C)c2[nH]nc(NC(=O)C3([Si](C)(C)C)CCC3)c2CN1C(=O)N[C@H](CC1(O)CC1)c1ccccc1` [IV-743, (R)—N-[2-(1-Hydroxycyclopropyl)-1-phenylethyl]-6,6-dimethyl-3-[1-(trimethylsilyl)cyclobutanecarboxamido]-4,6-dihydropyrrolo[3,4-c]pyrazole-5(1H)-carboxamide] showed an IC50 [2] of no more than 50 nM.
Work on `COC(C(=O)N1Cc2c(NC(=O)C3([Si](C)(C)C)CCC3)n[nH]c2C1(C)C)c1cccc(F)c1` (centres unmarked) [IV-1404, N-{5-[2-(3-Fluorophenyl)-2-methoxyacetyl]-6,6-dimethyl-1,4,5,6-tetrahydropyrrolo[3,4-c]pyrazol-3-yl}-1-(trimethylsilyl)cyclobutanecarboxamide] yielded an IC50 [2] of no more than 50 nM.
Compound `CC(C)(O)C[C@@H](NC(=O)N1Cc2c(NC(=O)C3([Si](C)(C)C)CCC3)n[nH]c2C1(C)C)c1cccc(F)c1` [IV-911, (R)—N-[1-(3-Fluorophenyl)-3-hydroxy-3-methylbutyl]-6,6-dimethyl-3-[1-(trimethylsilyl)cyclobutanecarboxamido]-4,6-dihydropyrrolo[3,4-c]pyrazole-5(1H)-carboxamide] has an IC50 [2] of no more than 50 nM.
Compound `CC(C)(O)C[C@@H](NC(=O)N1Cc2c(NC(=O)C3([Si](C)(C)C)CCC3)n[nH]c2C1(C)C)c1ccc(F)cc1` [IV-939, (R)—N-[1-(4-Fluorophenyl)-3-hydroxy-3-methylbutyl]-6,6-dimethyl-3-[1-(trimethylsilyl)cyclobutanecarboxamido]-4,6-dihydropyrrolo[3,4-c]pyrazole-5(1H)-carboxamide] has an IC50 [2] of no more than 50 nM.
`CO[C@@H](C(=O)N1Cc2c(NC(=O)C3([Si](C)(C)C)CCC3)n[nH]c2C1(C)C)c1ccccc1F` [IV-1383, (R)—N-{5-[2-(2-Fluorophenyl)-2-methoxyacetyl]-6,6-dimethyl-1,4,5,6-tetrahydropyrrolo[3,4-c]pyrazol-3-yl}-1-(trimethylsilyl)cyclobutanecarboxamide] showed an IC50 [2] of no more than 50 nM.
`CC(C)(CO)C(NC(=O)N1Cc2c(NC(=O)C3([Si](C)(C)C)CCC3)n[nH]c2C1(C)C)c1ccccc1` (single isomer, unassigned; (-)) [IV-673, (−)-N-(3-Hydroxy-2,2-dimethyl-1-phenylpropyl)-6,6-dimethyl-3-[1-(trimethylsilyl)cyclobutanecarboxamido]-4,6-dihydropyrrolo[3,4-c]pyrazole-5(1H)-carboxamide] showed an IC50 [2] of no more than 50 nM.
In the case of `CC(C)(CO)C(NC(=O)N1Cc2c(NC(=O)C3([Si](C)(C)C)CCC3)n[nH]c2C1(C)C)c1cccc(F)c1` (centres unmarked) [IV-918, N-[1-(3-Fluorophenyl)-3-hydroxy-2,2-dimethylpropyl]-6,6-dimethyl-3-[1-(trimethylsilyl)cyclobutanecarboxamido]-4,6-dihydropyrrolo[3,4-c]pyrazole-5(1H)-carboxamide], the IC50 [2] is reported as no more than 50 nM.
With `CC1(C)c2[nH]nc(NC(=O)C3([Si](C)(C)C)CCC3)c2CN1C(=O)N[C@H](CCCO)c1ccccc1` [IV-283, (R)—N-(4-Hydroxy-1-phenylbutyl)-6,6-dimethyl-3-[1-(trimethylsilyl)cyclobutanecarboxamido]-4,6-dihydropyrrolo[3,4-c]pyrazole-5(1H)-carboxamide] the IC50 [1] was no more than 50 nM.
Compound `CC1(C)c2[nH]nc(NC(=O)C3([Si](C)(C)C)CCC3)c2CN1C(=O)N[C@H](CCO)c1ccccc1` [IV-227, (R)—N-(3-Hydroxy-1-phenylpropyl)-6,6-dimethyl-3-[1-(trimethylsilyl)cyclobutanecarboxamido]-4,6-dihydropyrrolo[3,4-c]pyrazole-5(1H)-carboxamide] has an IC50 [1] of no more than 50 nM.
In the case of `CC(C)(O)[C@@H](NC(=O)N1Cc2c(NC(=O)C3([Si](C)(C)C)CCC3)n[nH]c2C1(C)C)c1ccccc1` [IV-171, (S)—N-(2-Hydroxy-2-methyl-1-phenylpropyl)-6,6-dimethyl-3-[1-(trimethylsilyl)cyclobutanecarboxamido]-4,6-dihydropyrrolo[3,4-c]pyrazole-5(1H)-carboxamide], the IC50 [1] is reported as no more than 50 nM.
With `CC1(C)c2[nH]nc(NC(=O)C(C)(C)[Si](C)(C)C)c2CN1C(=O)N[C@H](CO)c1ccccc1` [II-114, (S)—N-(2-Hydroxy-1-phenylethyl)-6,6-dimethyl-3-[2-methyl-2-(trimethylsilyl)propanamido]-4,6-dihydropyrrolo[3,4-c]pyrazole-5(1H)-carboxamide] the IC50 [1] was no more than 50 nM.
`CC1(C)c2[nH]nc(NC(=O)C3([Si](C)(C)C)CCC3)c2CN1C(=O)NCC(O)c1ccccc1` (centres unmarked) [IV-450, N-(2-Hydroxy-2-phenylethyl)-6,6-dimethyl-3-[1-(trimethylsilyl)cyclobutanecarboxamido]-4,6-dihydropyrrolo[3,4-c]pyrazole-5(1H)-carboxamide] showed an IC50 [1] of no more than 50 nM.
Work on `CC1(C)c2[nH]nc(NC(=O)C3([Si](C)(C)C)CC3)c2CN1C(=O)N[C@H](CO)c1ccccc1` [III-114, (S)—N-(2-Hydroxy-1-phenylethyl)-6,6-dimethyl-3-[1-(trimethylsilyl)cyclopropanecarboxamido]-4,6-dihydropyrrolo[3,4-c]pyrazole-5(1H)-carboxamide] yielded an IC50 [1] of no more than 50 nM.
Compound `CC1(C)c2[nH]nc(NC(=O)C3([Si](C)(C)C)CCC3)c2CN1C(=O)N[C@H](CO)c1ccccc1` [IV-114, (S)—N-(2-Hydroxy-1-phenylethyl)-6,6-dimethyl-3-[1-(trimethylsilyl)cyclobutanecarboxamido]-4,6-dihydropyrrolo[3,4-c]pyrazole-5(1H)-carboxamide] has an IC50 [1] of no more than 50 nM.
`COC[C@@H](NC(=O)N1Cc2c(NC(=O)C3([Si](C)(C)C)CCC3)n[nH]c2C1(C)C)c1ccccc1` [IV-123, (S)—N-(2-Methoxy-1-phenylethyl)-6,6-dimethyl-3-[1-(trimethylsilyl)cyclobutanecarboxamido]-4,6-dihydropyrrolo[3,4-c]pyrazole-5(1H)-carboxamide] showed an IC50 [1] of no more than 50 nM.

From US10131679B2, “Substituted dihydropyrrolopyrazole compound” (UBE INDUSTRIES, LTD., priority 2014, dated 2018)
